# From US20230272077A1, “PD-1 SIGNAL INHIBITOR COMBINATION THERAPY” (KYOTO UNIVERSITY, priority 2015, published 2023)
# “Also recorded” adds a separate entry of the source.
# Key:
# [1] = test system: MC38; assay: Mouse therapy model, MC38-bearing mice (tumor volume, survival); assay type: in vivo
# Method: MC38 (5×10^5) and MethA (5×10^5) cells were intradermally injected on the right flank. MC38 was inoculated into C57BL/6 mice and MethA was inoculated into BALB/c mice. For monotherapy, mice were intraperitoneally injected with 150 μg of PD-L1 mouse antibody (1-111A) (prepared by the laboratory of the present inventors) 5 days after the tumor inoculation. Therapy with PD-L1 antibody alone was repeated three times every 5 days. For combination therapy, administration of PD-L1 antibody and chemical agents started 7 days after tumor injection. Chemical agents were injected at a regular interval of 2 days and PD-L1 antibody at a regular interval of 5 days (shown in FIG. 3b). Tumors were measured on every alternate day, and tumor volumes were calculated using the formula for typical ellipsoid, π×(length×breadth×height/6).
# The following chemical reagents were used at the indicated concentrations for combination therapy. AMPK activator: A769662, 6 mg/kg (Abcam); mTOR activator: MHY1485, 3 μg/kg (Sigma-Aldrich); uncoupler: carbonylcyanide-p-trifluoromethoxyphenylhydrazone (FCCP), 1.2 mg/kg (Abcam); uncoupler: 2,4-Dinitrophenol (DNP), 1.7 mg/kg (Aldrich); SIRT1 activator: resveratrol, 0.5 mg/kg (Abcam); ROS scavenger: Mn (III) tetrakis (4-benzoic acid) porphyrin (MnTBAP), 1.25 mg/kg (Calbiochem); ROS generator: tert-butyl hydroperoxide solution (Luperox TBH70X), 200 μL/kg (Sigma-Aldrich); ATP synthase inhibitor: oligomycin, 250 μg/kg (Sigma-Aldrich); paraquat 2 mg/kg (Nakalai Tesque); oltipraz 1.9 mg/kg (Sigma); bezafibrate 1 mg/kg (ChemCruz).
# All reagents were freshly prepared just before use. Each reagent was dissolved in the solvent indicated in the instructions. Note that the AMPK activator, mTOR activator, uncouplers and SIRT1 activator were prepared from fresh unused vials in each series of experiments. Dissolved reagents were diluted in PBS, and a 200 l aliquot was injected per mouse.
# Murine colon adenocarcinoma MC38 cells (5×10^5) were inoculated into C57BL/6 mice. After 7 days, anti-PD-L1 antibody (1-111A, 150 μg) and AMPK inhibitor (Compound C: 200 μg in BBS, 200 μL) were administered intraperitoneally. Anti-PD-L1 antibody was administered 3 times at a regular interval of 6 days; Compound C (C.C) was administered 7 times at a regular interval 2 days.
# MC38 cells (5×10^5) were inoculated into C57BL/6 mice. After 7 days, anti-PD-L1 antibody (1-111A, 150 μg) and PGC-1α/transcription factor complex activator (2-(4-{2-[(4-chlorobenzoyl)amino]ethyl}phenoxy)-2-methylpropanoic acid (bezafibrate): 10 ug in PBS, 200 ul) were administered intraperitoneally. Anti-PD-L1 antibody was administered 3 times at a regular interval of 6 days; bezafibrate was administered 7 times at a regular interval 2 days.
# [2] = test system: tumor cells; assay: Phenotypic and transcription profile analysis of tumor cells from mice treated with reagent alone; set-up: species or system mouse; conditions: tumor cells from mice treated with reagent alone in vivo
# Text: FIG. 12. […] After enzymatic digestion, tumor cells were sorted with a cell isolation kit capable of excluding non-tumor cells. The isolated tumor cells were further purified with Aria and used in the following experiments. b) Tumor cells were stained with antibodies targeting PD-L1, MHC class I, CD155 (ligand of TIGIT), and VISTA or with dyes for mitochondrial mass, membrane potential, and superoxide. c) Expression levels of genes associated with mitochondrial energy metabolism and apoptosis were examined using RT^2 profiler PCR Kit.
# For analyzing draining lymph nodes, cells from axillary, brachial, and inguinal lymph nodes on the right side of tumor-inoculated mice were harvested and mixed. Averaged cell numbers per one lymph node were used as absolute cell numbers. For tumor analysis, tumor tissues were minced into 2- to 3-mm pieces with scissors and digested with collagenase type IV (Thermo Fisher Scientific) using a gentle MACS Dissociator (Miltenyi Biotec). The numbers of tumor cells per mg were used as absolute numbers. Tumor cells were isolated from digested tumor tissues using a Tumor Cell Isolation Kit, mouse (Miltenyi Biotec). This kit purifies tumor cells by excluding lymphocytes, red blood cells, fibroblasts, endothelial cells and tumor-associated stromal cells. The resultant tumor cell population was further isolated/purified with FACS Aria (BD Biosciences). […]
structure (smiles),measurement,setting,value
"N#CC(C#N)=NNc1ccc(OC(F)(F)F)cc1 [FCCP, carbonyl cyanide p-trifluoromethoxyphenylhydrazone]",antitumor effect when administered alone,"[1]; MC38-bearing mice, reagent alone, no PD-L1 antibody, tumor volume",failed to exhibit any antitumor effect
same,enhancement of antitumor effect of PD-L1 antibody (tumor volume),"[1]; MC38-bearing mice, reagent combined with PD-L1 antibody vs PD-L1 antibody alone",augmented the efficacy of PD-L1 antibody therapy; also recorded: enhance the antitumor effect of PD-L1 antibody
same,survival rate,"[1]; mouse, in vivo",remarkably improved the survival rate
same,changes in immune-regulatory surface markers and transcriptional profiles of tumor cells,[2],did not show a significant difference; also recorded: little effect on tumor cells in vivo
